From patent publication US8674109B2, “Pesticidal compositions” (Dow AgroSciences, LLC., priority 2009, dated 2014)

Assays:
Assay type in all cases: in vivo
[1] = tested on: beet armyworm (BAW; Spodoptera exigua: Lepidoptera); assay: Insecticidal test for beet armyworm, 128-well diet tray assay
Outline: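 Three to five second-instar larvae per well fed on artificial diet surface-treated with 50 μg/cm^2 compound (applied in 90:10 acetone-water, dried). Trays were held six days at 25 °C, 14:10 light-dark. Percent mortality was averaged across eight wells.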

[2] = tested on: corn earworm (CEW; Helicoverpa zea: Lepidoptera); assay: Insecticidal test for corn earworm, 128-well diet tray assay
Outline: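 Second-instar larvae, three to five per well, placed on artificial diet treated with 50 μg/cm^2 compound applied in 90:10 acetone-water and dried. Held six days at 25° C., 14:10 light-dark. Percent mortality scored per well and averaged over eight wells.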

[3] = tested on: green peach aphid (Myzus persicae); assay: Insecticidal test for green peach aphid in foliar spray assay on cabbage seedlings
Outline: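 Cabbage seedlings carrying 20-50 aphids (adults and nymphs) were sprayed to runoff with compound at 200 ppm in acetone/methanol diluted in 0.025% Tween 20, with four pots per treatment. After three days at about 25 °C and 40% RH, live aphids were counted. Percent control was Abbott-corrected against solvent-check plants.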

SMILES	% Mortality BAW 50 μg/cm^2 [1]	% Mortality CEW 50 μg/cm^2 [2]	% Mortality GPA 200 ppm [3]
O=C(Nc1ccc(-c2ncn(-c3ccc(OC(F)(F)F)cc3)n2)cc1)OC(c1ccccc1)c1ccccc1 [Compound 83]	A (50-100)	A (50-100)	B (Less than 80)
CC(OC(=O)Nc1ccc(-c2ncn(-c3ccc(OC(F)(F)F)cc3)n2)cc1)c1ccc(F)cc1 (stereo not drawn) [Compound 84]	A (50-100)	A (50-100)	B (Less than 80)
CCC(OC(=O)Nc1ccc(-c2ncn(-c3ccc(OC(F)(F)F)cc3)n2)cc1)c1ccccc1 (stereo not drawn) [Compound 85]	A (50-100)	A (50-100)	B (Less than 80)
Cc1noc(C)c1C(C)OC(=O)Nc1ccc(-c2ncn(-c3ccc(OC(F)(F)F)cc3)n2)cc1 (stereo not drawn) [Compound 86]	A (50-100)	A (50-100)	B (Less than 80)
CC(C)OC(=O)Nc1ccc(-c2ncn(-c3ccc(OC(F)(F)F)cc3)n2)cc1 [Compound 87]	A (50-100)	B (Less than 50)	B (Less than 80)
O=C(Nc1ccc(-c2ncn(-c3ccc(OC(F)(F)F)cc3)n2)cc1)OC(c1ccccc1)C1CC1 (stereo not drawn) [Compound 88]	A (50-100)	A (50-100)	B (Less than 80)
Cc1cccc(C)c1C(C)OC(=O)Nc1ccc(-c2ncn(-c3ccc(OC(F)(F)F)cc3)n2)cc1 (stereo not drawn) [Compound 89]	A (50-100)	A (50-100)	B (Less than 80)
O=C(Nc1ccc(-c2ncn(-c3ccc(OC(F)(F)F)cc3)n2)cc1)OC(c1ccccc1)C(F)(F)F (stereo not drawn) [Compound 90]	A (50-100)	A (50-100)	B (Less than 80)
Cc1ccc(C(C)OC(=O)Nc2ccc(-c3ncn(-c4ccc(OC(F)(F)F)cc4)n3)cc2)cc1 (stereo not drawn) [Compound 91]	A (50-100)	A (50-100)	B (Less than 80)
Cc1cccc(C(C)OC(=O)Nc2ccc(-c3ncn(-c4ccc(OC(F)(F)F)cc4)n3)cc2)c1 (stereo not drawn) [Compound 92]	A (50-100)	A (50-100)	B (Less than 80)
Cc1ccccc1C(C)OC(=O)Nc1ccc(-c2ncn(-c3ccc(OC(F)(F)F)cc3)n2)cc1 (stereo not drawn) [Compound 93]	A (50-100)	A (50-100)	B (Less than 80)
Cc1ccc2c(c1)CC(C)C(OC(=O)Nc1ccc(-c3ncn(-c4ccc(OC(F)(F)F)cc4)n3)cc1)O2 (stereo not drawn) [Compound 94]	A (50-100)	A (50-100)	B (Less than 80)
O=C(Nc1ccc(-c2ncn(-c3ccc(OC(F)(F)F)cc3)n2)cc1)OC1CCc2ccccc2O1 (stereo not drawn) [Compound 95]	A (50-100)	A (50-100)	B (Less than 80)
CCC#CC(C)(C)OC(=O)Nc1ccc(-c2ncn(-c3ccc(OC(F)(F)F)cc3)n2)cc1 [Compound 96]	A (50-100)	A (50-100)	B (Less than 80)
COc1ccc(C(C)OC(=O)Nc2ccc(-c3ncn(-c4ccc(OC(F)(F)F)cc4)n3)cc2)cc1 (stereo not drawn) [Compound 97]	A (50-100)	A (50-100)	B (Less than 80)
CCOC(=O)Nc1ccc(-c2ncn(-c3ccc(OC(F)(F)F)cc3)n2)cc1 [Compound 98]	A (50-100)	A (50-100)	B (Less than 80)
CN(C)CC#CC(C)(C)OC(=O)Nc1ccc(-c2ncn(-c3ccc(OC(F)(F)F)cc3)n2)cc1 [Compound 99]	B (Less than 50)	B (Less than 50)	B (Less than 80)
COc1ccc(CC(C)(C)OC(=O)Nc2ccc(-c3ncn(-c4ccc(OC(F)(F)F)cc4)n3)cc2)cc1 [Compound 100]	B (Less than 50)	B (Less than 50)	B (Less than 80)
CCCCCC(CC)OC(=O)Nc1ccc(-c2ncn(-c3ccc(OC(F)(F)F)cc3)n2)cc1 (stereo not drawn) [Compound 101]	A (50-100)	A (50-100)	B (Less than 80)
